biological target: T1, human PTH1 receptor (Homo sapiens, UniProt Q03431); assay: In vitro cAMP signal activity in HKRK-B7 cells (LLC-PK1 cells overexpressing the human PTH1 receptor); format: cell-based; details: HKRK-B7 cells; compound at 1×10^−3 M; cAMP produced as percentage of that produced by hPTH(1-34) at 100 nM
T1 sequence (Q03431 27-593): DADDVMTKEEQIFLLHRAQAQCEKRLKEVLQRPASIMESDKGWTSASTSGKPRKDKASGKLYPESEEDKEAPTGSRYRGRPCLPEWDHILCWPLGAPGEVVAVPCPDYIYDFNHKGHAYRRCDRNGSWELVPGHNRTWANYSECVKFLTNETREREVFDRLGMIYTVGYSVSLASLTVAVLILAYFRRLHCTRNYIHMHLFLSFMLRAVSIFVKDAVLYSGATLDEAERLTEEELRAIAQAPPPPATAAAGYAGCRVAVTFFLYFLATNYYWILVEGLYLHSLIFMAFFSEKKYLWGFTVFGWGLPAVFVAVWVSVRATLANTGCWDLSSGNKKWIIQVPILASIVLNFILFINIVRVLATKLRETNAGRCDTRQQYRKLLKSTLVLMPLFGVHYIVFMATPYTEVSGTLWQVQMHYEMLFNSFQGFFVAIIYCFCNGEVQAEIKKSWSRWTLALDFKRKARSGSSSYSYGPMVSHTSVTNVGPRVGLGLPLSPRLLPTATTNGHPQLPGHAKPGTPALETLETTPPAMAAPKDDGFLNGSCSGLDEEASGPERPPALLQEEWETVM

First: Cc1cc(N(C)C(N)=O)cc(C)c1C1CC1S(=O)(=O)N1CCC2(CC1)N=C(C1CCC(C)CC1)NC2=O (stereo not drawn) [Compound 740, 1-(3,5-Dimethyl-4-{2-[2-(4-methyl-cyclohexyl)-4-oxo-1,3,8-triaza-spiro[4.5]dec-1-ene-8-sulfonyl]-cyclopropyl}-phenyl)-1-methyl-urea]
Second: Cc1cc(N(C(N)=O)C(C)C)cc(C)c1/C=C/S(=O)(=O)N1CCC2(CC1)N=C(C1CCC(C)CC1)NC2=O (stereo not drawn) [Compound 726, 1-(3,5-Dimethyl-4-{(E)-2-[2-(4-methyl-cyclohexyl)-4-oxo-1,3,8-triaza-spiro[4.5]dec-1-ene-8-sulfonyl]-vinyl}-phenyl)-1-isopropyl-urea]
The “cAMP production activity (%)” value of the first is higher: 123% for the first, 75% for the second.

First: Cc1cc(N(C2CCOCC2)S(C)(=O)=O)cc(C)c1/C=C/S(=O)(=O)N1CCC2(CC1)N=C(c1cccc(OC(F)(F)F)c1)NC2=O [Compound 534, N-(3,5-dimethyl-4-{(E)-2-[4-oxo-2-(3-trifluoromethoxy-phenyl)-1,3,8-triaza-spiro[4.5]dec-1-ene-8-sulfonyl]-vinyl}-phenyl)-N-(tetrahydro-pyran-4-yl)-methane sulfonamide]
Second: Cc1cc(C(=O)N2CC[C@@H](F)C2)cc(C)c1/C=C/S(=O)(=O)N1CCC2(CC1)N=C(c1cccc(OC(F)(F)F)c1)NC2=O [Compound 959, 8-{(E)-2-[4-((R)-3-Fluoro-pyrrolidine-1-carbonyl)-2,6-dimethyl-phenyl]-ethenesulfonyl}-2-(3-trifluoromethoxy-phenyl)-1,3,8-triaza-spiro[4.5]dec-1-en-4-one]
The “cAMP production activity (%)” value of the first is lower: 39% for the first, 77% for the second.

Going from Cc1cc(C(=O)N(C)C)ccc1CCS(=O)(=O)N1CCC2(CC1)N=C(c1ccc(F)c(Cl)c1)NC2=O [Compound 89, 4-{2-[2-(3-chloro-4-fluoro-phenyl)-4-oxo-1,3,8-triaza-spiro[4.5]dec-1-ene-8-sulfonyl]-ethyl}-3,N,N-trimethyl-benzamide] to Cc1cc(C(=O)N2CC[C@H](N(C)C)C2)ccc1CCS(=O)(=O)N1CCC2(CC1)N=C(c1cccc(C(F)(F)F)c1)NC2=O [Compound 372, 8-{2-[4-((S)-3-dimethylamino-pyrrolidine-1-carbonyl)-2-methyl-phenyl]-ethanesulfonyl}-2-(3-trifluoromethyl-phenyl)-1,3,8-triaza-spiro[4.5]dec-1-en-4-one], the “cAMP production activity (%)” value falls from 96% to 51%.

Going from CC(C)(C)CNC(=O)Cc1ccc(/C=C/S(=O)(=O)N2CCC3(CC2)N=C(C2CCCCC2)NC3=O)cc1 [Compound 570, 2-{4-[(E)-2-(2-cyclohexyl-4-oxo-1,3,8-triaza-spiro[4.5]dec-1-ene-8-sulfonyl)-vinyl]-phenyl}-N-(2,2-dimethyl-propyl)-acetamide] to CN(C)C(=O)NCc1ccc(/C=C/S(=O)(=O)N2CCC3(CC2)N=C(C2CCCCC2)NC3=O)cc1 [Compound 565, 3-{4-[(E)-2-(2-cyclohexyl-4-oxo-1,3,8-triaza-spiro[4.5]dec-1-ene-8-sulfonyl)-vinyl]-benzyl}-1,1-dimethyl-urea], the “cAMP production activity (%)” value falls from 66% to 45%.

First: CNc1cc(C)c(/C=C/[S@TB3](=O)(=O)N2CCC3(CC2)N=C(CCCCCCCCCO)NC3=O)c(C)c1 [Compound 1107, 8-[(E)-2-(2,6-dimethyl-4-methylamino-phenyl)-ethenesulfonyl]-2-(9-hydroxy-nonyl)-1,3,8-triaza-spiro[4.5]dec-1-en-4-one]
Second: CCCS(=O)(=O)CCCCCC1=NC2(CCN(S(=O)(=O)/C=C/c3c(C)cc(N(C)C(N)=O)cc3C)CC2)C(=O)N1 [Compound 1318, 1-[3,5-Dimethyl-4-((E)-2-{4-oxo-2-[5-(propane-1-sulfonyl)-pentyl]-1,3,8-triaza-spiro[4.5]dec-1-ene-8-sulfonyl}-vinyl)-phenyl]-1-methyl-urea]
The “cAMP production activity (%)” value of the first is higher: 24% for the first, 19% for the second.

First: Cc1cc(N(C)C(N)=O)cc(C)c1CCS(=O)(=O)N1CCC2(CC1)N=C(C(C1CC1)C1CC1)NC2=O [Compound 1052, 1-{4-[2-(2-dicyclopropylmethyl-4-oxo-1,3,8-triaza-spiro[4.5]dec-1-ene-8-sulfonyl)-ethyl]-3,5-dimethyl-phenyl}-1-methyl-urea]
Second: CON(C)C(=O)c1cc(C)c(CCS(=O)(=O)N2CCC3(CC2)N=C(C2CCC(C)CC2)NC3=O)c(C)c1 (stereo not drawn) [Compound 1180, N-methoxy-3,5,N-trimethyl-4-{2-[2-(4-methyl-cyclohexyl)-4-oxo-1,3,8-triaza-spiro[4.5]dec-1-ene-8-sulfonyl]-ethyl}-benzamide]
The “cAMP production activity (%)” value of the first is lower: 62% for the first, 73% for the second.

Going from O=C1NC(C2CCC(CCC(F)(F)F)CC2)=NC12CCN(S(=O)(=O)/C=C/c1cccc3c1ccn3C[C@@H](O)CO)CC2 (stereo partly drawn) [Compound 541, 8-{(E)-2-[1-((R)-2,3-dihydroxy-propyl)-1H-indol-4-yl]-ethenesulfonyl}-2-[4-(3,3,3-trifluoro-propyl)-cyclohexyl]-1,3,8-triaza-spiro[4.5]dec-1-en-4-one] to O=C1NC(C2CCC(CCC(F)(F)F)CC2)=NC12CCN(S(=O)(=O)/C=C/c1cccc3c1ccn3CCOC[C@@H](O)CO)CC2 (stereo partly drawn) [Compound 704, 8-((E)-2-{1-[2-((S)-2,3-Dihydroxy-propoxy)-ethyl]-1H-indol-4-yl}-ethenesulfonyl)-2-[4-(3,3,3-trifluoro-propyl)-cyclohexyl]-1,3,8-triaza-spiro[4.5]dec-1-en-4-one], the “cAMP production activity (%)” value falls from 79% to 68%.

Going from CC(=O)N(C)c1cc(C)c(CCS(=O)(=O)N2CCC3(CC2)N=C(CCCCCCCCC(F)(F)F)NC3=O)c(C)c1 [Compound 1047, N-(3,5-dimethyl-4-{2-[4-oxo-2-(9,9,9-trifluoro-nonyl)-1,3,8-triaza-spiro[4.5]dec-1-ene-8-sulfonyl]-ethyl}-phenyl)-N-methyl-acetamide] to CC(=O)N(CCO)c1ccc(CCS(=O)(=O)N2CCC3(CC2)N=C(c2cccc(OC(F)(F)F)c2)NC3=O)c(C)c1 [Compound 149, N-(2-Hydroxy-ethyl)-N-(3-methyl-4-{2-[4-oxo-2-(3-trifluoromethoxy-phenyl)-1,3,8-triaza-spiro[4.5]dec-1-ene-8-sulfonyl]-ethyl}-phenyl)-acetamide], the “cAMP production activity (%)” value falls from 82% to 56%.

Going from [2H]C([2H])([2H])C([2H])([2H])Oc1ccc(C2=NC3(CCN(S(=O)(=O)/C=C/c4c(C)cc(C(=O)N5CCC(C)(O)CC5)cc4C)CC3)C(=O)N2)cc1C(F)(F)F [Compound 1221, 2-(4-[1,1,2,2,2-^2H5]ethoxy-3-trifluoromethyl-phenyl)-8-{(E)-2-[4-(4-hydroxy-4-methyl-piperidine-1-carbonyl)-2,6-dimethyl-phenyl]-ethenesulfonyl}-1,3,8-triaza-spiro[4.5]dec-1-en-4-one] to Cc1cc(C(=O)N2CCC(O)(CF)CC2)cc(C)c1/C=C/S(=O)(=O)N1CCC2(CC1)N=C(c1ccc(F)c(OCCCF)c1)NC2=O [Compound 1264, 2-[4-fluoro-3-(3-fluoro-propoxy)-phenyl]-8-{(E)-2-[4-(4-fluoromethyl-4-hydroxy-piperidine-1-carbonyl)-2,6-dimethyl-phenyl]-ethenesulfonyl}-1,3,8-triaza-spiro[4.5]dec-1-en-4-one], the “cAMP production activity (%)” value rises from 75% to 77%.

First: Cc1cc(N2C(=O)CNC2=O)cc(C)c1CCS(=O)(=O)N1CCC2(CC1)N=C(c1ccc(F)c(C(F)(F)F)c1)NC2=O [Compound 800, 3-(4-{2-[2-(4-fluoro-3-trifluoromethyl-phenyl)-4-oxo-1,3,8-triaza-spiro[4.5]dec-1-ene-8-sulfonyl]-ethyl}-3,5-dimethyl-phenyl)-imidazolidine-2,4-dione]
Second: Cc1cc(N2CCOCC2=O)ccc1CCS(=O)(=O)N1CCC2(CC1)N=C(c1cccc(OC(F)(F)F)c1)NC2=O [Compound 793, 8-{2-[2-methyl-4-(3-oxo-morpholin-4-yl)-phenyl]-ethanesulfonyl}-2-(3-trifluoromethoxy-phenyl)-1,3,8-triaza-spiro[4.5]dec-1-en-4-one]
The “cAMP production activity (%)” value of the first is lower: 77% for the first, 124% for the second.

First: O=C(c1cccc(C2=NC3(CCN(S(=O)(=O)c4cccc(Cl)c4)CC3)C(=O)N2)c1)N1CCOCC1 [Compound 348, 8-(3-Chloro-benzenesulfonyl)-2-[3-(morpholine-4-carbonyl)-phenyl]-1,3,8-triaza-spiro[4.5]dec-1-en-4-one]
Second: Cc1cc(C(=O)N2CCCCC2)ccc1CCS(=O)(=O)N1CCC2(CC1)N=C(c1cccc(C(F)(F)F)c1)NC2=O [Compound 380, 8-{2-[2-methyl-4-(piperidine-1-carbonyl)-phenyl]-ethanesulfonyl}-2-(3-trifluoromethyl-phenyl)-1,3,8-triaza-spiro[4.5]dec-1-en-4-one]
The “cAMP production activity (%)” value of the first is lower: 5.6% for the first, 75% for the second.

First: Cc1cc(OCCC(O)CO)ccc1/C=C/S(=O)(=O)N1CCC2(CC1)N=C(c1ccc(F)c(OC(F)(F)F)c1)NC2=O (stereo not drawn) [Compound 1166, 8-{(E)-2-[4-(3,4-Dihydroxy-butoxy)-2-methyl-phenyl]-ethenesulfonyl}-2-(4-fluoro-3-trifluoromethoxy-phenyl)-1,3,8-triaza-spiro[4.5]dec-1-en-4-one]
Second: O=C(NCCO)Nc1ccc(CCS(=O)(=O)N2CCC3(CC2)N=C(C2CCCCC2)NC3=O)c(C(F)(F)F)c1 [Compound 278, 1-{4-[2-(2-cyclohexyl-4-oxo-1,3,8-triaza-spiro[4.5]dec-1-ene-8-sulfonyl)-ethyl]-3-trifluoromethyl-phenyl}-3-(2-hydroxy-ethyl)-urea]
The “cAMP production activity (%)” value of the first is higher: 144% for the first, 59% for the second.

From patent US9169254B2, “Spiroimidazolone derivative” (Chugai Seiyaku Kabushiki Kaisha, priority 2009, dated 2015)
